Assay [1] relates to Staphylococcus aureus CIP52.1. The experiment in a line: Minimum inhibitory concentration (MIC), NCCLS dilution antimicrobial susceptibility test. The assay is classed as cell-based. From the text:
The bacterium Staphylococcus aureus CIP52.1 may be used in order to determine for each test compound the minimum inhibitory concentration for the bacterium, or MIC, expressed in μM.
The technique employed to determine the minimum inhibitory concentration or MIC was that described in the publication entitled “National committee for clinical laboratory standards” Vol. 13, No. 25, December 1993; Methods for dilution antimicrobial susceptibility tests for bacteria that grow aerobically-third edition, approved standard”. This minimum inhibitory concentration gives an indication as to the bacteriostatic effect of the test compounds, i.e., the capacity of these compounds to stop the proliferation of the bacterium.
Each compound of the invention was tested at least three times. The average of the test results was calculated, along with the standard deviation. The reference compound used was gentamycin.
The technique employed to determine the MIC values was the same as that described in Example 1.
Each compound of the invention and each comparative example taken from the Pierre Fabre patent application No. FR-2,736,548 was tested at least three times. The mean of the test results was calculated, along with the standard deviation. The reference compound used was gentamycin.

The test system of a further assay is RAR receptor. The experiment in a line: Biological activity of RAR receptor antagonist / agonist type. Conditions: stated in words, no test described.
The mark [2] stands for this setting: Staphylococcus aureus, CIP52, Table II, Example 1, mean of at least three tests, bacteriostatic effect, read-out: MIC RESULTS MEAN.
The mark [3] stands for this setting: Table II, Example 1, mean of at least three tests, bacteriostatic effect, read-out: MIC RESULTS MEAN.
Where [4] appears, read: Staphylococcus aureus, CIP52, read-out: MIC RESULTS MEAN.

Converted amounts (≈) assume the structure as drawn. Read-outs that look alike come from different tables or passages of the source.

As for `COc1cccc(C=CC#Cc2ccc(C(=O)O)cc2)c1-c1ccc(C)cc1` [Compound 3, 4-[4-(6-Methoxy-4′-methylbiphenyl-2-yl)but-3-en-1-ynyl]benzoic acid], the MIC (in general, the lowest concentration that inhibits growth of the organism) in assay [1] (setting [2]) is 1.04 µM (≈ 0.383 µg/mL). For the same compound, in the assay on RAR receptor, the “biological activity at RAR receptor (antagonist or agonist type)” value (from here on “biological activity at RAR receptor”) was “RAR receptor antagonist type”.

Take `COc1ccc(C#Cc2cc(C(=O)O)cs2)cc1C12CC3CC(CC(C3)C1)C2` [Compound 7]: the MIC in assay [1] (setting [3]) came out at 1.66 µM (≈ 0.652 µg/mL). Also, the “biological activity at RAR receptor” value in the assay with RAR receptor was “RAR receptor agonist type”.

With `CC1(C)CCC(C)(C)c2cc(-c3cc(-c4ccc(C(=O)O)cc4)ccc3-c3ccc(O)cc3)ccc21` [Compound 9, 4-Hydroxy-2′(5,5,8,8-tetramethyl-5,6,7,8-tetrahydronaphthalen-2-yl) [1,1′,4′,1″]terphenyl-4″-carboxylic acid], in assay [1] (setting [3]), the MIC amounted to 1.66 µM (≈ 0.791 µg/mL). In addition, the “biological activity at RAR receptor” value in the assay on RAR receptor was “RAR receptor agonist type”.

Turning to `CC1(C)CCC(C)(C)c2cc(-c3cc(-c4ccc(C(=O)O)cc4O)ccc3-c3ccccc3)ccc21` [Compound 10, 2″-Hydroxy-2′-(5,5,8,8-tetramethyl-5,6,7,8-tetrahydronaphthalen-2-yl) [1,1′,4′,1″]terphenyl-4″-carboxylic acid], the MIC in assay [1] (setting [3]) was 1.66 µM (≈ 0.791 µg/mL). Also, the “biological activity at RAR receptor” value with RAR receptor is “RAR receptor agonist type”.

For the compound `O=C(O)c1ccc2cc(-c3cc(Br)c(O)c(C45CC6CC(CC(C6)C4)C5)c3)ccc2c1` [Compound 11, 6-(3-Adamantan-1-yl-5-bromo-4-hydroxyphenyl)-naphthalene-2-carboxylic acid], in assay [1] (setting [2]), the MIC stood at 2.08 µM (≈ 0.993 µg/mL). For the same compound, the “biological activity at RAR receptor” value in the assay with RAR receptor was “RAR receptor agonist type”.

Consider `CC1(C)CCSc2ccc(-c3cc(-c4ccc(C(=O)O)cc4)ccc3-c3ccccc3)cc21` [Compound 13, 2′-(4,4-Dimethylthiochroman-6-yl) [1,1′,4′,1″]terphenyl-4″-carboxylic acid], for which the minimum inhibitory concentration (MIC) in assay [1] (setting [3]) stood at 2.08 µM (≈ 0.937 µg/mL). In the assay on RAR receptor, the “biological activity at RAR receptor” value is reported as “RAR receptor agonist type”.

As for `CC1(C)CCC(C)(C)c2cc(-c3cc(-c4ccc(C(=O)O)cc4)ccc3-c3ccccc3)c(O)cc21` [Compound 14, 2′-(3-Hydroxy-5,5,8,8-tetramethyl-5,6,7,8-tetrahydronaphthalen-2-yl) [1,1′,4′,1″]terphenyl-4″-carboxylic acid], the minimum inhibitory concentration (MIC) in assay [1] (setting [3]) is listed as 2.08 µM (≈ 0.991 µg/mL). Also, in the assay with RAR receptor, the “biological activity at RAR receptor” value was “RAR receptor agonist type”.

Consider `CC1(C)CCC(C)(C)c2cc3sc(-c4ccc(C(=O)O)cc4)cc3cc21` [Compound 15, 4-(5,5,8,8-Tetramethyl-5,6,7,8-tetrahydronaphtho-[2,3-b]thiophen-2-yl)benzoic acid], for which the MIC in assay [1] (setting [2]) was determined as 2.5 µM (≈ 0.911 µg/mL). Besides, the “biological activity at RAR receptor” value with RAR receptor is listed as “RAR receptor agonist type”.

As to `O=C(O)c1ccc(-c2ccc3cc(O)c(C45CC6CC(CC(C6)C4)C5)cc3c2)cc1` [Compound 16], the MIC in assay [1] (setting [3]) came to 2.50 µM (≈ 0.996 µg/mL). In the assay on RAR receptor, the “biological activity at RAR receptor” value is “RAR receptor agonist type”.

As to `CCCc1ccc(-c2ccccc2C=CC#Cc2ccc(C(=O)O)cc2)cc1` [Compound 21, 4-[4-(4′-Propylbiphenyl-2-yl)but-3-en-1-ynyl]benzoic acid], the minimum inhibitory concentration (MIC) in assay [1] (setting [2]) worked out at 2.5 µM (≈ 0.916 µg/mL). Also, the “biological activity at RAR receptor” value with RAR receptor is reported as “RAR receptor antagonist type”.

Take `COCCOCOc1cc2ccc(-c3ccc(C(=O)O)c(O)c3)cc2cc1C12CC3CC(CC(C3)C1)C2` [Compound 30, 4-[6-Methoxyethoxymethoxy-7-(1-adamantyl)-2-naphthyl] salicylic acid]: the MIC in assay [1] (setting [2]) stood at 3.33 µM (≈ 1.67 µg/mL). Besides, in the assay on RAR receptor, the “biological activity at RAR receptor” value was “RAR receptor antagonist type”.

Consider `COCOc1ccc(/C=C/C#Cc2ccc(C(=O)O)cc2)c(-c2ccc(C)cc2)c1` [Compound 31, (E)-4-[4-(5-Methoxymethoxy-4′ -methylbiphenyl-2-yl)but-3-en-1-ynyl]benzoic acid], for which the MIC in assay [1] (setting [2]) was found to be 3.33 µM (≈ 1.33 µg/mL). In addition, the “biological activity at RAR receptor” value with RAR receptor was “RAR receptor antagonist type”.

Take `COc1cccc(-c2ccc(C)cc2)c1C=CC#Cc1ccc(C(=O)O)cc1` [Compound 32, 4-[4-(3-Methoxy-4′-methylbiphenyl-2-yl)but-3-en-1-ynyl]benzoic acid]: the minimum inhibitory concentration (MIC) in assay [1] (setting [2]) was found to be 3.33 µM (≈ 1.23 µg/mL). Also, the “biological activity at RAR receptor” value with RAR receptor is on record as “RAR receptor antagonist type”.

Take `Cc1cc2c(cc1[Se]C#Cc1ccc(C(=O)O)cc1)C(C)(C)CCC2(C)C` [Compound 33, 4-(3,5,5,8,8-Pentamethyl-5,6,7,8-tetrahydronaphthalen-2-ylselanylethynyl)benzoic acid]: in assay [1] (setting [4]), the MIC amounted to 3.33 µM (≈ 1.42 µg/mL).

As for `CCCCCCCC/C=C(\C(=O)Nc1ccc(C(=O)O)cc1)c1ccc2c(c1)C(C)(C)CCC2(C)C` [Compound 36, 4-[(Z)-2-(5,6,7,8-tetrahydro-5,5,8,8-tetramethyl-2-naphthyl)-2-undecenamido]benzoic acid], in assay [1] (setting [2]), the minimal inhibitory concentration (MIC) came to 4.16 µM (≈ 2.04 µg/mL).

For `CCCOc1ccc(-c2ccc3c(c2)C(C)(C)CCC3(C)C)cc1-c1ccc(C(=O)O)cc1` [Compound 38, 2′-Propoxy-5′-(5,5,8,8-tetramethyl-5,6,7,8-tetrahydronaphthalen-2-yl)bipheny-1-4-carboxylic acid], the MIC in assay [1] (setting [3]) was 4.16 µM (≈ 1.84 µg/mL).

Regarding `CCCCCCCON=C(C(=O)Nc1ccc(C(=O)O)cc1)c1ccc2c(c1)C(C)(C)CCC2(C)C` [Compound 39, 4-[2-Heptyloxyimino-2-(5,5,8,8-tetramethyl-5,6,7,8-tetrahydronaphthalen-2-yl)acetylamino]-benzoic acid], the MIC in assay [1] (setting [2]) amounted to 5 µM (≈ 2.46 µg/mL).

On to `CC1(C)CCC(C)(C)c2cc(Oc3ccc4cc(C(N)=O)ccc4c3)ccc21` [Compound 40, 6-(5,5,8,8-Tetramethyl-5,6,7,8-tetrahydronaphthalen-2-yloxy)naphthalene-2-carboxylic acid amide], for which the minimal inhibitory concentration (MIC) in assay [1] (setting [2]) came to 5 µM (≈ 1.87 µg/mL).

For the compound `COc1ccc(-c2ccc3cc(C(=O)NCCN(C)C)ccc3c2)cc1C12CC3CC(CC(C3)C1)C2` [Compound 41, (2-Dimethylaminoethyl)amide of 6-(3-adamantan-1-yl-4-methoxyphenyl)naphthalene-2-carboxylic acid], the MIC in assay [1] (setting [3]) is recorded as 5.00 µM (≈ 2.41 µg/mL).

On to `CC1(C)CCC(C)(C)c2cc([Se]C#Cc3ccc(C(=O)O)c(O)c3)ccc21` [Compound 42, 2-Hydroxy-4-(5,5,8,8-tetramethyl-5,6,7,8-tetrahydronaphthalen-2-ylselanylethynyl)benzoic acid], for which the MIC in assay [1] (setting [4]) came out at 5 µM (≈ 2.14 µg/mL).

Turning to `COCOc1cc2c(cc1-c1cc(-c3ccc(C(=O)O)cc3)ccc1-c1ccccc1)C(C)(C)CCC2(C)C` [Compound 43, 2′-(3-Methoxymethoxy-5,5,8,8-tetramethyl-5,6,7,8-tetrahydronaphthalen-2-yl) [1,1′,4′,1″]terphenyl-4″-carboxylic acid], the MIC in assay [1] (setting [3]) is reported as 5.00 µM (≈ 2.6 µg/mL).

With `CC1(C)CCC(C)(C)c2cc(-c3cc(-c4ccc(C(=O)O)cc4)ccc3-c3cccc(O)c3)ccc21` [Compound 44, 3-Hydroxy-2′-(5,5,8,8-tetramethyl-5,6,7,8-tetrahydronaphthalen-2-yl) [1,1′,4′,1″]terphenyl-4″-carboxylic acid], the MIC in assay [1] (setting [3]) was 5.00 µM (≈ 2.38 µg/mL).

As for `COc1cc(C)c(-c2cccc(C=CC(=O)O)c2)cc1C12CC3CC(CC(C3)C1)C2` [Compound 45, 3-(5′-Adamantan-1-yl-4′-methoxy-2′-methylbiphenyl-3-yl)acrylic acid], in assay [1] (setting [2]), the MIC came out at 5 µM (≈ 2.01 µg/mL).
